Assay results: article PMC11511194, “Key Factors for Improving Predictive Accuracy and Avoiding Overparameterization of the PBPK Absorption Model in Food Effect Studies of Weakly Basic Water-Insoluble Compounds in Immediate Release Formulations” (Pharmaceutics, 2024)
Read-outs that look alike come from different tables or passages of the source.

Legend:
[1] = tested on: CYP3A4; test: CYP3A4 intrinsic clearance fitted in PBPK model; conditions: Fitted to clinical PK profiles
Text: (§1) S2. PBPK model development and validation physicochemical parameters for these three model drugs, including protein binding and Blood-to-Plasma (B/P) ratio, were obtained from experimental results, while log P and pKa were estimated based on the molecular formula using Gastro Plus ADMET software (version 10.3, […]
(§2) S2.1. Rivaroxaban PBPK model development and validation
S2.1.1. Rivaroxaban PBPK model development for metabolism and elimination module Given that the metabolic fractions of CYP3A4 and CYP2J2 to the systemic clearance of rivaroxaban were approximately 18% and 14% [1], respectively, and liver hydrolases contributed to about 14% of its systemic clearance, CLint_CYP3A4, CLint_CYP2J2 and CLHLM were fitted according to the metabolic fraction of rivaroxaban in vivo and concentration-time profiles from the SAD clinical trial in Caucasian subjects under fasted state. Considering that rivaroxaban was a substrate of P-gp transporter, and that about 36% and 7% of the parent drug were directly excreted by the kidney and liver, respectively, rivaroxaban may undergo active efflux through the kidney and liver in vivo [2]. Consequently, permeability-limited kidney and liver models were employed to account for the active efflux mechanism of P-gp for rivaroxaban. These models include both passive diffusion and active transport.
Clearances for passive diffusion in the kidney and liver was calculated using Equation S1 [5] and Equation S2 [6], respectively.
CL௉஽,௜ =2×P௔௣௣ × TSA௜ ሺS1ሻ where CLPD,i is the passive diffusion clearance of the drug in compartment i, Papp is the apparent permeability of the drug, and the TSAi is the regional tubular surface area of compartment i.
Log CL௉஽ =0.82×logD଻.ସ +0.5 ሺS2ሻ where CLPD is the passive diffusional clearance of APIs in the liver, and log D 7.4 is the oil-water partition coefficient at pH 7.4 [6] […]
Blood-to-plasma partition ratio 0.714 Measured
Fraction unbound in plasma 0.065 Measured […]
Caco-2(10-6cm/s) (Rivaroxaban) 8.103 Measured […]

[2] = ticagrelor metabolite; supplement ref 14; cited from earlier work
[3] = active metabolite of ticagrelor; supplement ref 17; cited from earlier work
[4] = Additional hepatic/systemic clearance fitted in PBPK model
Text: as §1, §2
S2.1.1. Rivaroxaban PBPK model development for metabolism and elimination module […]
its systemic clearance, CLint_CYP3A4, CLint_CYP2J2 and CLHLM were fitted according to the metabolic fraction of rivaroxaban in vivo and concentration-time profiles from the SAD clinical trial in Caucasian subjects under fasted state. […]
permeability-limited kidney and liver models were employed to account for the active efflux […]
Physicochemical properties

[5] = tested on: Caco-2; conditions: Apical pH : Basolateral pH 7.4 : 7.4, Passive&Active, cited from earlier work
[6] = Caco-2 permeability; assay type: in vitro ADME; conditions: human, Apical pH : Basolateral pH 7.4 : 7.4, Passive&Active, Table S6 source 'Measured'
Method: Precipitation parameters, such as critical supersaturation ratio (CSC) and precipitation rate constant (PRC), were evaluated when precipitation occurs in the neutral intestinal environment after the mixture of solution and undissolved substance is transferred from the gastric chamber in vitro. These parameters were evaluated by fitting the two-stage dissolution profile according to the crystallization kinetics equations [28, 29, 30]. The absorption module of the PBPK models for rivaroxaban, ticagrelor, and PB-201 was developed using the Advanced Dissolution, Absorption and Metabolism (ADAM) model, which incorporates a mechanistic framework based on drug permeability and the diffusion layer model (DLM). The calibrated permeability of drugs, as determined using the Caco-2 Transwell model, was used to represent the permeability of drugs in vivo [31]. The particle size of the APIs used in the formulation development was incorporated into the Particle Population Balance (PPB) option. The full PBPK model, which includes the predicted steady-state distribution volume (Vss) and tissue-plasma partition coefficient (Kp), was utilized to describe the distribution characteristics of these compounds. The Kp scalar was estimated via sensitive analysis to match observed concentration-time (C-T) profiles. […]

Compound: CCCSc1nc(N[C@@H]2C[C@H]2c2ccc(F)c(F)c2)c2nnn([C@@H]3C[C@H](O)[C@@H](O)[C@H]3O)c2n1 [AR-C124910XX]
- Intrinsic clearance of CYP 3A4 [1]: 6.000 µL/min/pmol
- Fraction unbound in plasma [2]: 0.002
- renal excretion [3]: about 0.04%
- Additional HLM CLint [4]: 5000 μL/min/mg protein

Compound: CN/C(=N/CCSCc1nc[nH]c1C)NC#N [Cimetidine]
- Caco-2 permeability ([5]; supplement ref 4): 2.36 10-6cm/s

Compound: COCCc1ccc(OCC(O)CNC(C)C)cc1 (centres unmarked) [Metoprolol]
- Caco-2 permeability ([5]; supplement ref 19): 15.0 10-6cm/s

Compound: CC(C)NCC(O)COc1cccc2ccccc12 (centres unmarked) [Propranolol]
- Papp [6]: 29.4 ×10⁻⁶ cm/s
- Caco-2 permeability ([5]; supplement ref 4): 31 10-6cm/s
